The values below come from US9695154B2, “Heteroaryl inhibitors of sumo activating enzyme” (MILLENNIUM PHARMACEUTICALS, INC., priority 2013, dated 2017).

Bounds are passed on as bounds.

The experiment addresses T1, recombinant human SAE enzyme (Homo sapiens, UniProt Q9UBT2).
T1 sequence (Q9UBT2 1-640): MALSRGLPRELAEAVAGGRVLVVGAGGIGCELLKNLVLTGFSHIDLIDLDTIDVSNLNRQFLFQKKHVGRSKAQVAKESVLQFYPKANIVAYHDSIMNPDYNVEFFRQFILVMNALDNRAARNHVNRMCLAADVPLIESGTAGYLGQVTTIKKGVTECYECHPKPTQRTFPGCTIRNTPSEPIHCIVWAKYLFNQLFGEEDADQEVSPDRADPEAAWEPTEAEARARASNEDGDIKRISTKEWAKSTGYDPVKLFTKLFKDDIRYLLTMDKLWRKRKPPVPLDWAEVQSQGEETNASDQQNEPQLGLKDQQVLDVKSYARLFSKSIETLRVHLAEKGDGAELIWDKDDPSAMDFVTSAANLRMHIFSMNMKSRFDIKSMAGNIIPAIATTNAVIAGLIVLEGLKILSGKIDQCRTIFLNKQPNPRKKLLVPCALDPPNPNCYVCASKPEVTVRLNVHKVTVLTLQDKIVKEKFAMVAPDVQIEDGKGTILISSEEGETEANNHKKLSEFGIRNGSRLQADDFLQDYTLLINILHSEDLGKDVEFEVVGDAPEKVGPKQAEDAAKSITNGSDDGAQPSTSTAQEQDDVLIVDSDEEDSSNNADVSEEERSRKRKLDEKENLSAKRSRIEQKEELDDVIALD
T1 sequence (Q9UBE0 1-346 partner): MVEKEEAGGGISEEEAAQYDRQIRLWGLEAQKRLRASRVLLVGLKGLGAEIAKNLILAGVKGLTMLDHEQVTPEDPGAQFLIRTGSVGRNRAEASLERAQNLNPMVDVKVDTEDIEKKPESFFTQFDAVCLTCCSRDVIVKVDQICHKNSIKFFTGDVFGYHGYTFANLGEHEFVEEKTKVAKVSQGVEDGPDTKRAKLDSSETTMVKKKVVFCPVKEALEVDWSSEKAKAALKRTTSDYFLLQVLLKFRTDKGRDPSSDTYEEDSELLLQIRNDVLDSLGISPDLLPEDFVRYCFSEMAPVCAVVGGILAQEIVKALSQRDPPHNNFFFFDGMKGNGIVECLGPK
Briefly: SAE HTRF Enzyme Assay. The experiment is classed as biochemical. The following applies: for IC50: class symbols A-C; for inhibition at 0.111 µM: compound concentration 0.111 μM, read-out: Percent Inhibition. In short, it runs like this:
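Recombinant human SAE (0.11 nM) transferred Sumo-Flag (0.125 μM) to Ubc9-GST (0.01 μM) with 0.5 μM ATP in HEPES pH 7.5, MgCl2, GSH, BSA; 105 min at 24° C. EDTA stop, Eu-cryptate anti-Flag and XL-APC anti-GST added, 2 h, then HTRF read. Values given as % inhibition at one concentration or IC50.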
(In general: TR-FRET usually uses a lanthanide donor and a delayed reading to cut background.)

As to `NS(=O)(=O)OC[C@H]1C[C@@H](Nc2ncncc2C(=O)c2ccn(Cc3ccc(F)cc3)n2)C[C@@H]1O` [Compound I-161, {(1R,2S,4R)-4-[(5-{[1-(4-fluorobenzyl)-1H-pyrazol-3-yl]carbonyl}pyrimidin-4-yl)amino]-2-hydroxycyclopentyl}methyl sulfamate], the IC50 is less than 0.01 µM and the inhibition at 0.111 µM amounted to 92%.
As for `Cc1ccnc(Cn2ccc(C(=O)c3cncnc3N[C@@H]3C[C@H](COS(N)(=O)=O)[C@@H](O)C3)n2)c1` [Compound I-162, [(1R,2S,4R)-2-hydroxy-4-{[5-({1-[(4-methylpyridin-2-yl)methyl]-1H-pyrazol-3-yl}carbonyl)pyrimidin-4-yl]amino}cyclopentyl]methyl sulfamate], the IC50 was less than 0.01 µM and the inhibition at 0.111 µM is 99%.
As to `NS(=O)(=O)OC[C@H]1C[C@@H](Nc2ncncc2C(=O)c2ccn(Cc3ccc(C(F)(F)F)o3)n2)C[C@@H]1O` [Compound I-163, [(1R,2S,4R)-2-hydroxy-4-({5-[(1-{[5-(trifluoromethyl)-2-furyl]methyl}-1H-pyrazol-3-yl)carbonyl]pyrimidin-4-yl}amino)cyclopentyl]methyl sulfamate], the IC50 was less than 0.01 µM and the inhibition at 0.111 µM is 98%.
For `C#Cc1cccc(Cn2nc(C(=O)c3cncnc3N[C@@H]3C[C@H](COS(N)(=O)=O)[C@@H](O)C3)cc2C)c1` [Compound I-164, {(1R,2S,4R)-4-[(5-{[1-(3-ethynylbenzyl)-5-methyl-1H-pyrazol-3-yl]carbonyl}pyrimidin-4-yl)amino]-2-hydroxycyclopentyl}methyl sulfamate] the same measures were less than 0.01 µM and greater than 99%.
The corresponding values for `NS(=O)(=O)OC[C@H]1C[C@@H](Nc2ncncc2C(=O)c2ccn(Cc3cccc(F)c3)n2)C[C@@H]1O` [Compound I-165, {(1R,2S,4R)-4-[(5-{[1-(3-fluorobenzyl)-1H-pyrazol-3-yl]carbony1}pyrimidin-4-yl)amino]-2-hydroxycyclopentyl}methyl sulfamate] are less than 0.01 µM and 98%.
Regarding `C#Cc1cc(Cn2ccc(C(=O)c3cncnc3N[C@@H]3C[C@H](COS(N)(=O)=O)[C@@H](O)C3)n2)ccc1F` [Compound I-166, {(1R,2S,4R)-4-[(5-{[1-(3-ethynyl-4-fluorobenzyl)-1H-pyrazol-3-yl]carbonyl}pyrimidin-4-yl)amino]-2-hydroxycyclopentyl}methyl sulfamate], the IC50 was less than 0.01 µM and the inhibition at 0.111 µM was found to be 98%.
The corresponding values for `NS(=O)(=O)OC[C@H]1C[C@@H](Nc2ncncc2C(=O)c2ccn(Cc3ccc(C(F)(F)F)cc3)n2)[C@H](O)[C@@H]1O` [Compound I-167, [(1R,2R,3S,4R)-2,3-dihydroxy-4-{[5-({1-[4-(trifluoromethyl)benzyl]-1H-pyrazol-3-yl}carbonyl)pyrimidin-4-yl]amino}cyclopentyl]methyl sulfamate] are less than 0.01 µM and 98%.
Consider `NS(=O)(=O)OC[C@H]1C[C@@H](Nc2ncncc2C(=O)c2ccn(Cc3cc(C(F)(F)F)cc(C(F)(F)F)c3)c2)C[C@@H]1O` [Compound I-168, [(1R,2S,4R)-4-{[5-({1-[3,5-Bis(trifluoromethyl)benzyl]-1H-pyrrol-3-yl}carbonyl)pyrimidin-4-yl]amino}-2-hydroxycyclopentyl]methylsulfamate], for which the concentration for half-maximal inhibition (IC50) is less than 0.01 µM and the inhibition at 0.111 µM worked out at 94%.
The corresponding values for `Cc1cc(Cn2ccc(C(=O)c3cncnc3N[C@@H]3C[C@H](COS(N)(=O)=O)[C@@H](O)[C@H]3O)n2)no1` [Compound I-169, [(1R,2R,3S,4R)-2,3-dihydroxy-4-{[5-({1-[(5-methylisoxazol-3-yl)methyl]-1H-pyrazol-3-yl}carbonyl)pyrimidin-4-yl]amino}cyclopentyl]methyl sulfamate] are less than 0.01 µM and 97%.
On to `NS(=O)(=O)OC[C@H]1C[C@@H](Nc2ncncc2C(=O)c2cc(C(F)(F)F)n(Cc3cccc(Cl)c3)n2)C[C@@H]1O` [Compound I-170, {(1R,2S,4R)-4-[(5-{[1-(3-Chlorobenzyl)-5-(trifluoromethyl)-1H-pyrazol-3-yl]carbonyl}pyrimidin-4-yl)amino]-2-hydroxycyclopentyl}methyl sulfamate], for which the concentration for half-maximal inhibition (IC50) is less than 0.01 µM and the inhibition at 0.111 µM was determined as 97%.
With `NS(=O)(=O)OC[C@H]1C[C@@H](Nc2ncncc2C(=O)c2ccn(Cc3ccc(C(F)(F)F)cc3)n2)C[C@@H]1O` [Compound I-171, [(1R,2S,4R)-2-hydroxy-4-{[5-({1-[4-(trifluoromethyl)benzyl]-1H-pyrazol-3-yl}carbonyl)pyrimidin-4-yl]amino}cyclopentyl]methyl sulfamate], the IC50 is less than 0.01 µM and the inhibition at 0.111 µM came to 95%.
With `CC(C)Cn1ccc(C(=O)c2cncnc2N[C@@H]2C[C@H](COS(N)(=O)=O)[C@@H](O)[C@H]2O)n1` [Compound I-173, [(1R,2R,3S,4R)-2,3-dihydroxy-4-({5-[(1-isobutyl-1H-pyrazol-3-yl)carbonyl]pyrimidin-4-yl}amino)cyclopentyl]methyl sulfamate], the IC50 is 0.01 to 0.1 µM and the inhibition at 0.111 µM is 71%.
For `NS(=O)(=O)OC[C@H]1C[C@@H](Nc2ccncc2C(=O)c2ccn(Cc3ccc(Cl)c(C(F)(F)F)c3)n2)C[C@@H]1O` [Compound I-174, [(1R,2S,4R)-4-{[3-({1-[4-chloro-3-(trifluoromethyl)benzyl]-1H-pyrazol-3-yl}carbonyl)pyridin-4-yl]amino}-2-hydroxycyclopentyl]methyl sulfamate] the same measures were less than 0.01 µM and 93%.
`NS(=O)(=O)OC[C@H]1C[C@@H](Nc2ncncc2C(=O)c2ccn(Cc3cccc(Cl)c3)n2)[C@@H](F)[C@@H]1O` [Compound I-176, {(1R,2R,3R,4R)-4-[(5-{[1-(3-chlorobenzyl)-1H-pyrazol-3-yl]carbonyl}pyrimidin-4-yl)amino]-3-fluoro-2-hydroxycyclopentyl}methyl sulfamate]: the IC50 was less than 0.01 µM and the inhibition at 0.111 µM is 98%.
Regarding `NS(=O)(=O)OC[C@H]1C[C@@H](Nc2ncncc2C(=O)c2ccn(Cc3cccc(Br)c3F)n2)[C@@H](F)[C@@H]1O` [Compound I-177, ((1R,2R,3R,4R)-4-((5-(1-(3-Bromo-2-fluorobenzyl)-1H-pyrazole-3 carbonyl)pyrimidin-4-yl)amino)-3-fluoro-2-hydroxycyclopentyl)methyl sulfamate], the IC50 is less than 0.01 µM and the inhibition at 0.111 µM is 99%.
For `NS(=O)(=O)OC[C@H]1C[C@@H](Nc2ncncc2C(=O)c2ccn(Cc3ccc(F)c(I)c3)n2)[C@@H](F)[C@@H]1O` [Compound I-178, {(1R,2R,3R,4R)-3-fluoro-4-[(5-{[1-(4-fluoro-3-iodobenzyl)-1H-pyrazol-3-yl]carbonyl}pyrimidin-4-yl)amino]-2-hydroxycyclopentyl}methyl sulfamate] the same measures were less than 0.01 µM and 99%.
As for `NS(=O)(=O)OC[C@H]1C[C@@H](Nc2ncncc2C(=O)c2ccn(Cc3ccc(Cl)c(Br)c3)n2)C[C@@H]1O` [Compound I-179, {(1R,2S,4R)-4-[(5-{[1-(3-bromo-4-chlorobenzyl)-1H-pyrazol-3-yl]carbonyl}pyrimidin-4-yl)amino]-2-hydroxycyclopentyl}methyl sulfamate], the IC50 is less than 0.01 µM and the inhibition at 0.111 µM was greater than 99%.
In the case of `NS(=O)(=O)OC[C@H]1C[C@@H](Nc2ncncc2C(=O)c2ccn(Cc3ccc(Cl)o3)n2)C[C@@H]1O` [Compound I-180, [(1R,2S,4R)-4-{[5-({1-[(5-chloro-2-furyl)methyl]-1H-pyrazol-3-yl}carbonyl)pyrimidin-4-yl]amino}-2-hydroxycyclopentyl]methyl sulfamate], the IC50 is less than 0.01 µM and the inhibition at 0.111 µM is 99%.
The corresponding values for `NS(=O)(=O)OC[C@H]1C[C@@H](Nc2ncncc2C(=O)c2ccn(Cc3cc(C(F)(F)F)ccc3Cl)n2)[C@@H](F)[C@@H]1O` [Compound I-181, [(1R,2R,3R,4R)-4-{[5-({1-[2-chloro-5-(trifluoromethyl)benzyl]-1H-pyrazol-3-yl}carbonyl)pyrimidin-4-yl]amino}-3-fluoro-2-hydroxycyclopentyl]methyl sulfamate] are less than 0.01 µM and 94%.

What is called IC50 is the concentration needed to halve the response being measured. The inhibition is the change of the read-out against control, counted positive when it falls.
